Assay results taken from US20260206761A1, “HETEROARYL-TRIAZOLE COMPOUNDS AS PESTICIDES” (Bayer Aktiengesellschaft, priority 2019, published 2026).

Key:
Format in all cases: in vivo
[1] = system: adult engorged female ticks (Rhipicephalus microplus); assay: Rhipicephalus (Boophilus) microplus injection test; settings: 168 h, egg deposition after 7 days, read-out: activity (efficacy: infertile eggs); for pest or weed control at 4 pg: application rate 4 pg/animal; for pest or weed control at 0.02 mg: application rate 20 μg/animal
How it was run: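 Five adult engorged female ticks injected into the abdomen with 1 μL compound solution in DMSO, then held in a climate chamber. Fertile egg deposition assessed after 7 days, unclear eggs kept until hatching (about 42 days); efficacy 100% = all eggs infertile, 0% = all fertile.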

[2] = system: adult cat fleas (Ctenocephalides felis); assay: Ctenocephalides felis in-vitro contact test, adult cat flea; settings: application rate 5 μg/cm^2 (=500 g/ha), after 48 hours, read-out: activity (efficacy: fleas dead or moribund)
How it was run: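 Acetone solutions of compound coated onto inner walls of glass tubes (900 ppm giving […]); after drying, 5-10 adult Ctenocephalides felis added and held at room temperature. At 48 h, fleas placed on a 45-50° C heating plate; those unable to climb away scored dead or moribund, expressed as % efficacy.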

[3] = system: adult unfed cat fleas (Ctenocephalides felis); assay: Ctenocephalides felis oral test; settings: 48 h, read-out: activity (mortality)
How it was run: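 About 20 adult unfed fleas fed through parafilm on cattle blood containing compound (DMSO stock diluted in blood), blood held at 37 °C and fleas at room temperature. Mortality (%) scored after 2 days.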

[4] = system: larvae of the banded cucumber beetle (Diabrotica balteata); assay: Diabrotica balteata spray test; settings: 168 h, after 7 days, read-out: activity (efficacy: seedlings grown); for pest or weed control at 100 g/ha: application rate 100 g/ha (=32 pg/well); for pest or weed control at 500 g/ha: application rate 500 g/ha (=160 pg/well)
How it was run: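 Wheat seedlings, germinated 1 day on agar (5 seeds/well), sprayed with active compound in acetone/DMF diluted in water containing 1000 ppm emulsifier, then infested with 10-20 D. balteata larvae. Efficacy (%) scored after 7 days: 100% = seedlings grown as untreated uninfested control, 0% = no seedlings grown.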

[5] = system: fall armyworm larvae (Spodoptera frugiperda); assay: Spodoptera frugiperda spray test; settings: 168 h, read-out: activity (mortality)
How it was run: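 Compound in acetone/DMF, diluted in water with 1000 ppm alkylarylpolyglycol ether emulsifier, sprayed on maize leaf sections. Dried leaves infested with fall armyworm larvae; % mortality after 7 days (100% = all killed, 0% = none).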

[6] = system: Aedes aegypti strain MONHEIM; assay: Aedes aegypti test (AEDSAE surface treatment & contact assay); settings: 24 hours after contact, read-out: efficacy (mortality); for mortality at 4 mg/m2: surface concentration 4 mg/m^2, exposure 30 minutes; for mortality at 20 mg/m2: surface concentration 20 mg/m^2, exposure 30 minutes
How it was run: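 Compound in acetone (2 mg/ml) with 2000 ppm RME pipetted onto glazed tile and dried; adult Aedes aegypti MONHEIM exposed 30 min. Percent mortality scored 24 h after contact.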

[7] = system: Musca domestica strain WHO-N; assay: Musca domestica test (MUSCDO surface treatment & contact assay); settings: 24 hours after contact, read-out: efficacy (mortality); for mortality at 4 mg/m2: surface concentration 4 mg/m^2, exposure 30 minutes; for mortality at 20 mg/m2: surface concentration 20 mg/m^2, exposure 30 minutes
How it was run: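 Compound dissolved at 2 mg/ml in acetone with 2000 ppm rapeseed oil methyl ester and pipetted onto a glazed tile. After the acetone evaporated, adult WHO-N flies were exposed to the dried surface for 30 min, with % mortality scored 24 h after contact.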

SMILES | pest or weed control at 4 pg [1] | pest or weed control at 0.02 mg [1] | pest or weed control at 5 µg/cm2 [2] | mortality at 100 ppm [3] | pest or weed control at 100 g/ha [4] | mortality at 100 g/ha [5] | mortality at 4 mg/m2 [6] | mortality at 20 mg/m2 [6] | mortality at 4 mg/m2 [7] | mortality at 20 mg/m2 [7] | pest or weed control at 500 g/ha [4] | mortality at 500 g/ha [5]
C[C@H](NC(=O)c1cc(C(F)(F)F)cc(C2(C#N)CC2)c1)c1ncnn1-c1ccc(Cl)cn1 [II-48] | 100% | 100% | 90% | 100% | 100% | 100% | 80 to 100% | 80 to 100% | 80 to 100% | 80 to 100% | – | –
Cc1nc([C@H](C)NC(=O)c2cc(Cl)cc(C3(C#N)CC3)c2)n(-c2ccc(C#N)cn2)n1 [II-38] | 100% | 100% | 100% | 100% | 100% | 100% | 80 to 100% | – | 80 to 100% | 80 to 100% | – | –
Cc1nc([C@H](C)NC(=O)c2cc(C(F)(F)F)cc(C3(C#N)CC3)c2)n(-c2ccc(Cl)cn2)n1 [II-50] | 100% | 100% | 100% | 100% | 100% | 100% | 80 to 100% | 80 to 100% | – | 80 to 100% | – | –
Cc1nc([C@H](C)NC(=O)c2cc(Cl)nn2C)n(-c2ccc(C#N)cn2)n1 [II-11] | 100% | 100% | 100% | 100% | 100% | – | 80 to 100% | 80 to 100% | 80 to 100% | – | 100% | 100%
Cc1nc([C@H](C)NC(=O)c2cc(OC(F)(F)F)cc(C3CC3)c2)n(-c2ccc(C#N)cn2)n1 [II-39] | 100% | 100% | 100% | 100% | 100% | 100% | 80 to 100% | 80 to 100% | 80 to 100% | 80 to 100% | – | –
Cc1nc([C@H](C)NC(=O)c2cc(Cl)cc(S(=O)(=O)C(F)F)c2)n(-c2ccc(Cl)cn2)n1 [II-36] | 100% | 100% | 100% | 100% | 100% | 100% | 80 to 100% | 80 to 100% | 80 to 100% | – | 100% | 100%
C[C@H](NC(=O)c1cc(Cl)cc([S+]([O-])C(F)F)c1)c1ncnn1-c1ccc(C#N)cn1 (stereo partly drawn) [II-18, 3-chloro-N-{(1S)-1-[1-(5-cyanopyridin-2-yl)-1H-1,2,4-triazol-5-yl]ethyl}-5-[(difluoro-methyl)sulfinyl]benzamide] | 100% | 100% | 100% | 100% | 100% | 100% | 80 to 100% | 80 to 100% | – | 80 to 100% | 100% | 100%
CC(C)c1nc([C@H](C)NC(=O)c2cc(OC(F)(F)F)cc(C3CC3)c2)n(-c2ccc(C#N)cn2)n1 [I-23] | 100% | 100% | 100% | 100% | 80% | 100% | 80 to 100% | 80 to 100% | – | 80 to 100% | – | –
C[C@H](NC(=O)c1cc(C2CC2)cc(C(F)(F)F)c1)c1ncnn1-c1ccc(Cl)cn1 [II-27] | 100% | 100% | 100% | 100% | 100% | 100% | 80 to 100% | 80 to 100% | 80 to 100% | 80 to 100% | 100% | 100%
C[C@H](NC(=O)c1cc(OC(F)(F)F)cc(C2CC2)c1)c1ncnn1-c1ccccn1 [II-22] | 100% | 100% | 100% | 100% | 100% | 100% | 80 to 100% | 80 to 100% | 80 to 100% | 80 to 100% | 100% | 100%
C[C@H](NC(=O)c1cc(C(F)(F)F)cc(C2(C#N)CC2)c1)c1ncnn1-c1ccc(C#N)cn1 [II-47] | 100% | 100% | 100% | 100% | 100% | 100% | 80 to 100% | 80 to 100% | 80 to 100% | 80 to 100% | – | –
Cc1nc([C@H](C)NC(=O)c2cc(C(F)(F)F)cc(C3(C#N)CC3)c2)n(-c2ccc(C#N)cn2)n1 [II-49] | 100% | 100% | 100% | 100% | 100% | 100% | 80 to 100% | 80 to 100% | 80 to 100% | 80 to 100% | – | –
C[C@H](NC(=O)c1cc(Cl)cc(S(=O)(=O)C2CC2)c1)c1nc(C2CC2)nn1-c1ncc(Cl)cn1 [I-25] | 100% | 100% | 100% | 100% | 100% | 100% | 80 to 100% | 80 to 100% | 80 to 100% | 80 to 100% | – | –
